Earlier results as cited in article PMC4860011 (Biochemistry, 2015).

Biological target: bsNOS (Bacillus subtilis, UniProt O34453)
Conditions: read-out: KD of imidazole; used to convert KS,app to KS

Sequence of bsNOS (O34453 whole entry): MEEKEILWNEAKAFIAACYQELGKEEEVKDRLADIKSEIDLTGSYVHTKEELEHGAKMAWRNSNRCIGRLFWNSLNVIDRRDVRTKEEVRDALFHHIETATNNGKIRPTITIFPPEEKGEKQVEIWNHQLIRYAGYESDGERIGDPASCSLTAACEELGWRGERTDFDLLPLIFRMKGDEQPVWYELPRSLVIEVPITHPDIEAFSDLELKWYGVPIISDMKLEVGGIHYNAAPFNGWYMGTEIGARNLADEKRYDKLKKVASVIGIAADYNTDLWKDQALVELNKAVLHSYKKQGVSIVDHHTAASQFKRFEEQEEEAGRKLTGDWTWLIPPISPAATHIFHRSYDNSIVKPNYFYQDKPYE

Q: With `c1c[nH]cn1` [imidazole] as the compound, how does the Kd read?
A: 384 µM
